This note sets out measurements from patent US8637252B2, “Methods and compositions for determining altered susceptibility of HIV-1 to anti-HIV drugs” (Monogram Biosciences, Inc., priority 2011, dated 2014).

The test deals with HIV-1 (PRRT-RHIN segment of patient sample 62). The experiment in a line: phenotypic drug resistance test, PRRT-RHIN amplicon of sample 62. The test is classed as cell-based. The text has this:
Patient-derived segment(s) corresponding to the entire pol gene, encoding HIV protease, reverse transcriptase (including RNAse H), and integrase (hereinafter “POL”), the portion of pol encoding amino acids 1-305 of reverse transcriptase (hereinafter “PR-RT”), the portion of pol encoding amino acids 319-440 of reverse transcriptase (including RNAse H), and integrase (hereinafter “RHIN”), were amplified by the reverse transcription-polymerase chain reaction method (RT-PCR) using viral RNA isolated from viral particles present in the plasma or serum of HIV-infected individuals as described below. The portion of pol encoding protease, amino acids 1-531 of reverse transcriptase (including RNase H) (hereinafter “PRRT-RH”), or the portion of pol encoding protease, reverse transcriptase (including RNAse H) and integrase (hereinafter “PRRT-RHIN”), were assembled from amplicons described above by standard recombinant DNA techniques involving a KpnI restriction site at amino acid 400 or a Pin A1 site at amino acid 315.
Drug resistance tests performed with test vectors were carried out using packaging host and target host cells consisting of the human embryonic kidney cell line 293.
Resistance tests were carried out with the RTV libraries by using viral particles comprising the RTV libraries to infect a host cell in which the expression of the indicator gene is measured. The amount of indicator gene (luciferase) activity detected in infected cells is used as a direct measure of “infectivity,” i.e., the ability of the virus to complete a single round of replication. Thus, drug resistance or sensitivity can be determined by plotting the amount of luciferase activity produced by patient derived viruses in the presence of varying concentrations of the antiviral drug. By identifying the concentration of drug at which luciferase activity is half-maximum, the IC50 of the virus from which patient-derived segment(s) were obtained for the antiretroviral agent can be determined. […]
`O=C1Nc2ccc(Cl)cc2[C@@](C#CC2CC2)(C(F)(F)F)O1` [EFV, efavirenz]: the “Fold Change in IC50, PRRT-RHIN amplicon” value was found to be 202.00 fold. With `Cc1ccnc2c1NC(=O)c1cccnc1N2C1CC1` [NVP, nevirapine], the “Fold Change in IC50, PRRT-RHIN amplicon” value is listed as 400.00 fold. `CC(C)Nc1cccnc1N1CCN(C(=O)c2cc3cc(NS(C)(=O)=O)ccc3[nH]2)CC1` [DLV, delavirdine]: the “Fold Change in IC50, PRRT-RHIN amplicon” value amounted to 140.00 fold.
